# Measurements taken from US20080161395A1, “Derivatives of Aminobutanoic Acid Inhibiting Cpt” (SIGMA-TAU INDUSTRIE FARMACEUTICHE RIUNITE S.P.A., priority 2005, published 2008).
# Experiments:
# [1] = molecular target: T1, CPT1 heart (Rattus norvegicus, UniProt Q63704); experiment: Inhibition of CPT in fresh rat heart mitochondrial preparations; format: biochemical, Fischer rats; details: rat heart mitochondria, 50 μM [14C]palmitoyl-CoA, 10 mM L-carnitine, 37° C., 1 minute
# T1 construct: fresh mitochondrial preparations obtained from the liver or heart of Fischer rats; from tissue; host or cells: heart mitochondria of Fischer rats
# T1 sequence (Q63704 1-772): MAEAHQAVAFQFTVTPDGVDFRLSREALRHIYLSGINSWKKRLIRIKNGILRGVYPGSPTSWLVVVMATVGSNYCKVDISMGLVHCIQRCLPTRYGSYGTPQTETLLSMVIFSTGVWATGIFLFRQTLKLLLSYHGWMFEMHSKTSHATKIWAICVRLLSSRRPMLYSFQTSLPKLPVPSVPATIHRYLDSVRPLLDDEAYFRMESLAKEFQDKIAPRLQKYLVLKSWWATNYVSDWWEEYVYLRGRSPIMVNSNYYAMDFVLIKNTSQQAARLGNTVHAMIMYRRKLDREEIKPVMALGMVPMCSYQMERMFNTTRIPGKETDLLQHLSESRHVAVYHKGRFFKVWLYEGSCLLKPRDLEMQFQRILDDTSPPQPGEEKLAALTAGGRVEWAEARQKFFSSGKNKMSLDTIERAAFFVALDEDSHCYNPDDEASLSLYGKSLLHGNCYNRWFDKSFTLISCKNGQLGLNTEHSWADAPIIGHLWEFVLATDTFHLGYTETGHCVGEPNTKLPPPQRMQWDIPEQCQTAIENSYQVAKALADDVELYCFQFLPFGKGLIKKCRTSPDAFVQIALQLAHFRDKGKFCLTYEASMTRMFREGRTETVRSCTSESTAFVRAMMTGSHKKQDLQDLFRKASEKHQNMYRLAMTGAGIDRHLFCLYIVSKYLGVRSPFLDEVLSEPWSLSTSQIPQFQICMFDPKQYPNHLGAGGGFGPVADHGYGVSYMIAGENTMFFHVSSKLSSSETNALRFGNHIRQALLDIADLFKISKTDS
# Method: The inhibition of CPT was evaluated on fresh mitochondrial preparations obtained from the liver or heart of Fischer rats, fed normally; the mitochondria taken from the liver or heart are suspended in a 75 mM sucrose buffer, EGTA 1 mM, pH 7.5. 100 μl of a mitochondrial suspension, containing 50 μM of [^14C] palmitoyl-CoA (spec.act. 10000 dpm/mole) and 10 mM of L-carnitine, are incubated at 37° C. in the presence of stepped concentrations (0-3 mM) of product under examination.
# (§1) The IC50 is then determined.
# [2] = test system: CPT-1 in the hypothalamus; details: intracerebroventricular (icv) administration; Nature Medicine, 2003, 9(6), 756-761; cited from earlier work
# [3] = molecular target: T2, CPT1 liver (Rattus norvegicus, UniProt P32198); experiment: Inhibition of CPT in fresh rat liver mitochondrial preparations; format: biochemical, Fischer rats; details: rat liver mitochondria, 50 μM [14C]palmitoyl-CoA, 10 mM L-carnitine, 37° C., 1 minute
# T2 construct: fresh mitochondrial preparations obtained from the liver or heart of Fischer rats; from tissue; host or cells: liver mitochondria of Fischer rats
# T2 sequence (P32198 1-773): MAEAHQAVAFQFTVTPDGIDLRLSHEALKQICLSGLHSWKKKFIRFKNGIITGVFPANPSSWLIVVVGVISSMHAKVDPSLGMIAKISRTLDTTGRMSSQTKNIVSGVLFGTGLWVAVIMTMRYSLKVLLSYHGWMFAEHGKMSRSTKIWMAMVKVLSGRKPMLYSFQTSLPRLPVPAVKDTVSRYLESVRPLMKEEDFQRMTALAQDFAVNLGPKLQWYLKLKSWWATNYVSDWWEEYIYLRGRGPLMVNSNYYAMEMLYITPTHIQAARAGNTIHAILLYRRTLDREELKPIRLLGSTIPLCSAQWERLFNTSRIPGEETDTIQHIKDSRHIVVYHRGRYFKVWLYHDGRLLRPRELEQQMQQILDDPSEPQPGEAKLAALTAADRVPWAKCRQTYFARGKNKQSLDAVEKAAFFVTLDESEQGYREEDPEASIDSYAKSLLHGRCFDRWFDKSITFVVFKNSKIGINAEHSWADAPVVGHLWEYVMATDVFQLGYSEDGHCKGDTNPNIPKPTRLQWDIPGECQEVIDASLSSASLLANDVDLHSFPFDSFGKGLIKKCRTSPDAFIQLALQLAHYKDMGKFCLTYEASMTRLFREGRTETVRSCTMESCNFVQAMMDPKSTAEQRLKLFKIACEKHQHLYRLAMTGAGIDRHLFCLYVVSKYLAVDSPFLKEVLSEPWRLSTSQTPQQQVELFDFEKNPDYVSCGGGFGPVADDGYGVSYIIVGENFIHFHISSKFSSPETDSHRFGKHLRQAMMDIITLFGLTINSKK
# Method: 100 μl of a mitochondrial suspension, containing 50 μM of [^14C] palmitoyl-CoA (spec.act. 10000 dpm/mole) and 10 mM of L-carnitine, are incubated at 37° C. in the presence of stepped concentrations (0-3 mM) of product under examination.
# as §1
Compound,IC50 [1],food intake and gluconeogenesis [2],IC50 [3]
"CCCCCCCCCCCCCCNC(=O)N[C@H](CC(=O)[O-])C[N+](C)(C)C [ST1326, R-4-trimethyl ammonium-3-(tetradecylcarbamoyl)-aminobutyrate]",48.8 µM,significantly and consistently reducing,0.36 µM
"CCCCCCCCCCCCCCNC(=O)N[C@H](CC(=O)O)CN(C)C [ST2837, (R)-4-(dimethylamino)-3-(tetradecylcarbamoyl)-amino-butyric Acid]",70 µM,,5.7 µM
